Test results reported in ChEMBL document CHEMBL3124838, “Discovery of 6-aryl-azabenzimidazoles that inhibit the TBK1/IKK-ε kinases” (Bioorg Med Chem Lett, 2014).

Legend:
[1] = target: Epidermal growth factor receptor (Homo sapiens) (UniProt P00533); experiment: Inhibition of human EGFR assessed as residual activity at 1 uM relative to control
[2] = test system: Proto-oncogene tyrosine-protein kinase receptor Ret (Homo sapiens), P07949 [V804L]; experiment: Inhibition of human RET V804L mutant assessed as residual activity at 1 uM relative to control
[3] = target: T1, Ephrin type-B receptor 1 (Homo sapiens) (UniProt P54762); experiment: Inhibition of human EPHB1 assessed as residual activity at 1 uM relative to control
T1 sequence (whole entry): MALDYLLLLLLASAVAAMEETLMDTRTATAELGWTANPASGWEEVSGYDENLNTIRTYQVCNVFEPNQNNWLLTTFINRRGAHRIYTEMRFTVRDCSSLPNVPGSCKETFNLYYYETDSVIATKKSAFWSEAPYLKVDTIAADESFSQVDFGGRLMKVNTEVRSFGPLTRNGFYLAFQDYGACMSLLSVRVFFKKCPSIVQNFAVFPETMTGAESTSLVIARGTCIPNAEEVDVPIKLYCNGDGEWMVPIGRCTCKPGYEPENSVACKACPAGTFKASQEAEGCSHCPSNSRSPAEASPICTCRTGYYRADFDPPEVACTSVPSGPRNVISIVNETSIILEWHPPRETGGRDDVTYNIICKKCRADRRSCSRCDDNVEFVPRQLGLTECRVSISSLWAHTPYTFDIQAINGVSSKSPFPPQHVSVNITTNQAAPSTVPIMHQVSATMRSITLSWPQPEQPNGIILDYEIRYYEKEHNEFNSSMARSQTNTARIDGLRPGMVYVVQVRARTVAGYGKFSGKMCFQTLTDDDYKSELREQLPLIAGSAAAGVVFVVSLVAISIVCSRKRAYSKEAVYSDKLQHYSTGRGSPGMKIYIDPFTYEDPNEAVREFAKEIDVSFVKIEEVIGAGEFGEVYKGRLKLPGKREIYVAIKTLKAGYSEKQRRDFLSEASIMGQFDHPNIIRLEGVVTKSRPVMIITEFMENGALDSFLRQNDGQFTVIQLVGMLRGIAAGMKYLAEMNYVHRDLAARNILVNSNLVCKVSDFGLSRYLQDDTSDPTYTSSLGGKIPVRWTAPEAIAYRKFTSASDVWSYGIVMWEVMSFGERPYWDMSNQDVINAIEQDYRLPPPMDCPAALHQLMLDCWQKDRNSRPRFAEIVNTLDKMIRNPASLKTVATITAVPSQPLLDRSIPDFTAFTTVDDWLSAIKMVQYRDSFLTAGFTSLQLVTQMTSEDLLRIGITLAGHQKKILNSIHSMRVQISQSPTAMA

[4] = target: Tyrosine-protein kinase Fyn (Homo sapiens) (UniProt P06241); experiment: Inhibition of human FYN assessed as residual activity at 1 uM relative to control
[5] = target: T2, Serine/threonine-protein kinase Chk1 (Homo sapiens) (UniProt O14757); experiment: Inhibition of human CHK1 assessed as residual activity at 1 uM relative to control
T2 sequence (whole entry): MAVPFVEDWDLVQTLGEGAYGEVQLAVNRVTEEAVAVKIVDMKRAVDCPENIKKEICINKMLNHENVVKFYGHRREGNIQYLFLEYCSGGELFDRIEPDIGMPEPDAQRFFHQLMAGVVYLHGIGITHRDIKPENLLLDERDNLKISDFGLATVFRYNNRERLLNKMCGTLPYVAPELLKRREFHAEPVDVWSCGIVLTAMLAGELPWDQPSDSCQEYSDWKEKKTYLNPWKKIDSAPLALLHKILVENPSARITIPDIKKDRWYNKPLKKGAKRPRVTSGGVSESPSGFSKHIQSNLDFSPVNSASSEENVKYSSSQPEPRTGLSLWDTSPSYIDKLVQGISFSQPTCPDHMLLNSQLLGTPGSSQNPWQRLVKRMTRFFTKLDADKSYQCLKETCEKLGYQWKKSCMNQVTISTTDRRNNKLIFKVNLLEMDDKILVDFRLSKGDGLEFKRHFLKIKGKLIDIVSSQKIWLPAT

[6] = target: Protein-tyrosine kinase 6 (Homo sapiens) (UniProt Q13882); experiment: Inhibition of human BRK assessed as residual activity at 1 uM relative to control
[7] = target: Tyrosine-protein kinase BTK (Homo sapiens) (UniProt Q06187); experiment: Inhibition of human BTK assessed as residual activity at 1 uM relative to control
[8] = target: Phosphatidylinositol 4,5-bisphosphate 3-kinase catalytic subunit gamma isoform (Homo sapiens) (UniProt P48736); experiment: Inhibition of human PI3K p120gamma assessed as residual activity at 1 uM relative to control
[9] = target: T3, Serine/threonine-protein kinase Sgk1 (Homo sapiens) (UniProt O00141); experiment: Inhibition of human SGK assessed as residual activity at 1 uM relative to control
T3 sequence (whole entry): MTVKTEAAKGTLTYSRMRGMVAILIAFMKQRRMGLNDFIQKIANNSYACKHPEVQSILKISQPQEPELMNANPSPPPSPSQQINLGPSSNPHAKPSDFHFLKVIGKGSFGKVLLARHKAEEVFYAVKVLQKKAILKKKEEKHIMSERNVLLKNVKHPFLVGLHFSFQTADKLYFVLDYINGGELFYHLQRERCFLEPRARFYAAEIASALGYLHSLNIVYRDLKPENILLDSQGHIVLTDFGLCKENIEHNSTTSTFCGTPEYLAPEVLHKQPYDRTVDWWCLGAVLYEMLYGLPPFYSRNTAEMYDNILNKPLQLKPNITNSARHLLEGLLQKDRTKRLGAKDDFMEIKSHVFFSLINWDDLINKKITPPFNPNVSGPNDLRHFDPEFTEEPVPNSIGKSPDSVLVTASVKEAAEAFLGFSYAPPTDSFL

Epidermal growth factor receptor (Homo sapiens), sequence (P00533 whole entry): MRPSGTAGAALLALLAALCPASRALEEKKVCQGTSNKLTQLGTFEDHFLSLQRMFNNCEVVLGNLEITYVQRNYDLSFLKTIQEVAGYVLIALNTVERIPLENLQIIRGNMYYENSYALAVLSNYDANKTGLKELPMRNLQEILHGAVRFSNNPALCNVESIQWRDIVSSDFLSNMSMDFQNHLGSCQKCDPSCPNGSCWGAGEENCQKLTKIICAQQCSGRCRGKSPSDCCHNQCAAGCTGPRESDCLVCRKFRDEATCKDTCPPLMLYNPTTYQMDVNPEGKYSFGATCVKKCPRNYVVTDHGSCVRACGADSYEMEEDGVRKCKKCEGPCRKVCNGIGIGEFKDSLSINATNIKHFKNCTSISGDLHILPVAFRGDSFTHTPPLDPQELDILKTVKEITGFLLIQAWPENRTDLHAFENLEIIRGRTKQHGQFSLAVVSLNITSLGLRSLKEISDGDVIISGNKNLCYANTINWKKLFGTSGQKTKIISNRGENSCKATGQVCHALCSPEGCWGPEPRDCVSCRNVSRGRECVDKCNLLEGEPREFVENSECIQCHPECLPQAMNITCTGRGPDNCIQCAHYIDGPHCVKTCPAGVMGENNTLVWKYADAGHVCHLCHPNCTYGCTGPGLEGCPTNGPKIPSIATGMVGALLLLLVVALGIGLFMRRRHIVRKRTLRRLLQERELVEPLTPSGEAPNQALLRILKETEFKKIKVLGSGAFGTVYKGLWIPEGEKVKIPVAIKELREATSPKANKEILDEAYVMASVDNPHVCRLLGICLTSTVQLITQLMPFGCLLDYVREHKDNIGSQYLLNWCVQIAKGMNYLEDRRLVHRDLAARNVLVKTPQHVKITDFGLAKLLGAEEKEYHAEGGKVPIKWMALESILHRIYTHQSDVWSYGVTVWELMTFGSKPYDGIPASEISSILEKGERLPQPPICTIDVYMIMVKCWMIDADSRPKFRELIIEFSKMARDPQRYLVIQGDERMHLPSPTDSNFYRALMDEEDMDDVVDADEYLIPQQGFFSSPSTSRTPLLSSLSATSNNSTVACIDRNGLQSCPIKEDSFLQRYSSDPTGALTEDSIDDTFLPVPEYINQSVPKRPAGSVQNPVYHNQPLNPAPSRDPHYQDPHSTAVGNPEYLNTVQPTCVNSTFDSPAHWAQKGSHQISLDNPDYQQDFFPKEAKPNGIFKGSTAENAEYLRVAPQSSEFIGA
Protein-tyrosine kinase 6 (Homo sapiens), sequence (Q13882 whole entry, looked up): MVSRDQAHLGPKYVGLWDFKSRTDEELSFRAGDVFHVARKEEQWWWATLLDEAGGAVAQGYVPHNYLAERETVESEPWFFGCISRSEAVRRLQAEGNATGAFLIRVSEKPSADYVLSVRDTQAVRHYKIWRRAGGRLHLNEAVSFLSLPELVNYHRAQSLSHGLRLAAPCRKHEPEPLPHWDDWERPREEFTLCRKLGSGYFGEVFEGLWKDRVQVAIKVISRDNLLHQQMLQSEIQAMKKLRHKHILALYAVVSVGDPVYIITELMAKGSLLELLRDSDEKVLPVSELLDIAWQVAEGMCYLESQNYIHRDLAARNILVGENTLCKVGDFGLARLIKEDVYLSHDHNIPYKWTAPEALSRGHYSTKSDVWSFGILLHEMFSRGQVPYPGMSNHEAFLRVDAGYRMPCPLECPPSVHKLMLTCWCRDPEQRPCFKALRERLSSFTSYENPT
Tyrosine-protein kinase Fyn (Homo sapiens), sequence (P06241 2-537 limits assumed): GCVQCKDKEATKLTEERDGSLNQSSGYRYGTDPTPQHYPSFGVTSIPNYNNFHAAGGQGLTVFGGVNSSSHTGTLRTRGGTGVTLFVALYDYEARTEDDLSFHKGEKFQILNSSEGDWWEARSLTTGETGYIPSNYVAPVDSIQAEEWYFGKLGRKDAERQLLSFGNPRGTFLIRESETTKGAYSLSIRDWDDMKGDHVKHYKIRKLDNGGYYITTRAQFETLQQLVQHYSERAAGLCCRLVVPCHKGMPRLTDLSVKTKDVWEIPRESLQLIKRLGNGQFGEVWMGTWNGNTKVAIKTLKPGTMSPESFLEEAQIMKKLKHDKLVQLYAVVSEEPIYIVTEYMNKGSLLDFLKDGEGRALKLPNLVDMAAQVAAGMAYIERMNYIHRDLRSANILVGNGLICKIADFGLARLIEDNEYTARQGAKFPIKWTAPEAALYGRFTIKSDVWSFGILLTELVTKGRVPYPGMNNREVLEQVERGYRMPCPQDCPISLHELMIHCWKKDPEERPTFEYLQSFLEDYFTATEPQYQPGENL
Proto-oncogene tyrosine-protein kinase receptor Ret (Homo sapiens), P07949 [V804L], sequence (P07949 whole entry V804L): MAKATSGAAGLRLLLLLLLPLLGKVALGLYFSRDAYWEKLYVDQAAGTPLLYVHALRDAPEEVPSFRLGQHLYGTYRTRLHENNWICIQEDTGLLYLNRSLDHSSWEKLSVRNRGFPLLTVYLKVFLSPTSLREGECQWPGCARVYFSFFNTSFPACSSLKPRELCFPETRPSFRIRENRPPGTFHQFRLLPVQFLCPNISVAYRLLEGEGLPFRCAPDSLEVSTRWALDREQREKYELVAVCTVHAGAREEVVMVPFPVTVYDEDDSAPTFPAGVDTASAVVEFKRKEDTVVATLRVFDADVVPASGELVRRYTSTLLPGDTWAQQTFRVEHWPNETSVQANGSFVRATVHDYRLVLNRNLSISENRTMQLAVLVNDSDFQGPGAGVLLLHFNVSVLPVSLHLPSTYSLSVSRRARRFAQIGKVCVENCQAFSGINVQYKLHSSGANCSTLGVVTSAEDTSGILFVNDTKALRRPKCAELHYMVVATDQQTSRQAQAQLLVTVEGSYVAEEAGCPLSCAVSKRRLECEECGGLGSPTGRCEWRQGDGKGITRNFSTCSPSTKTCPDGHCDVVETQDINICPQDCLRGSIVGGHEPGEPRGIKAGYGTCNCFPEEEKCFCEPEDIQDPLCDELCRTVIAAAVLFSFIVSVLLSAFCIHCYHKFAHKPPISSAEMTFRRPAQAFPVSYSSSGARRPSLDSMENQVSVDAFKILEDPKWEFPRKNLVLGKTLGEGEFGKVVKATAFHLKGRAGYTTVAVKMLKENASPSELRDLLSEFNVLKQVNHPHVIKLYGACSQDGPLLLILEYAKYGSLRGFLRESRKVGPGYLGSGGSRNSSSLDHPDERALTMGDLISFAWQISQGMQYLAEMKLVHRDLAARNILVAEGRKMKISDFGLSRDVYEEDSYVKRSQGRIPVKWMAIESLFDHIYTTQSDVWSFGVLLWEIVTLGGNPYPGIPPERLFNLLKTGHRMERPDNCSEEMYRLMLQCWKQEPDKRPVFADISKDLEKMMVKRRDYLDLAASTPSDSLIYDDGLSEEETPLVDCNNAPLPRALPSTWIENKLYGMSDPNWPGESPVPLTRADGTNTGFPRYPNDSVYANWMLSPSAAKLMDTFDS
Phosphatidylinositol 4,5-bisphosphate 3-kinase catalytic subunit gamma isoform (Homo sapiens), sequence (P48736 whole entry, looked up, canonical isoform): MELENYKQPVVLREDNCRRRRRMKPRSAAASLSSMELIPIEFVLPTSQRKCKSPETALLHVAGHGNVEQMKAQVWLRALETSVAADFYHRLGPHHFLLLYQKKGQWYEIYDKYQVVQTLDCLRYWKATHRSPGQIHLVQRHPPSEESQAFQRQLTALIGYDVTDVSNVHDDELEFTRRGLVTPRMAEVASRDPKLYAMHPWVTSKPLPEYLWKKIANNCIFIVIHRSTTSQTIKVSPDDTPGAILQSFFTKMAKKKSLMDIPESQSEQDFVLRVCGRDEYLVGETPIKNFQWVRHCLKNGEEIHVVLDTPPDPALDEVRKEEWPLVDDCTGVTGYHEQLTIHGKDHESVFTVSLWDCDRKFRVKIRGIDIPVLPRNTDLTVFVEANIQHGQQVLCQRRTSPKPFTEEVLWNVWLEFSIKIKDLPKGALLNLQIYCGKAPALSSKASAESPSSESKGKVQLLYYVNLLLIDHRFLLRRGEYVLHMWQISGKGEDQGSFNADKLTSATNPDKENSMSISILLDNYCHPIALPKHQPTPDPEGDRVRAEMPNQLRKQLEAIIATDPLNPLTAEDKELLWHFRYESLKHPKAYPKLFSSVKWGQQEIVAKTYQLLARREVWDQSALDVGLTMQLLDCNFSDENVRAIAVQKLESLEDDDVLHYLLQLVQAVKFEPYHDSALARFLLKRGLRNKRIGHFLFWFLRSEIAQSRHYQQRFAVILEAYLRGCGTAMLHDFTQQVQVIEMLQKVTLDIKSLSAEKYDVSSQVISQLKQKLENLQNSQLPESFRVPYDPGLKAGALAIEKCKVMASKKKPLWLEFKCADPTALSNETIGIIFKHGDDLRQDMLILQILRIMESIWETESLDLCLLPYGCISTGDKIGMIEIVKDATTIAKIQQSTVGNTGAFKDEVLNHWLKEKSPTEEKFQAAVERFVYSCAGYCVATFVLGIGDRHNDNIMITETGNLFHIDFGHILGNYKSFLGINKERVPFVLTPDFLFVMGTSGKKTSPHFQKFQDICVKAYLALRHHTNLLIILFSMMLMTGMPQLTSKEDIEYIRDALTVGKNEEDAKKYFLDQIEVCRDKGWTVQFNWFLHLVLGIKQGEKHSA
Tyrosine-protein kinase BTK (Homo sapiens), sequence (Q06187 whole entry, canonical isoform): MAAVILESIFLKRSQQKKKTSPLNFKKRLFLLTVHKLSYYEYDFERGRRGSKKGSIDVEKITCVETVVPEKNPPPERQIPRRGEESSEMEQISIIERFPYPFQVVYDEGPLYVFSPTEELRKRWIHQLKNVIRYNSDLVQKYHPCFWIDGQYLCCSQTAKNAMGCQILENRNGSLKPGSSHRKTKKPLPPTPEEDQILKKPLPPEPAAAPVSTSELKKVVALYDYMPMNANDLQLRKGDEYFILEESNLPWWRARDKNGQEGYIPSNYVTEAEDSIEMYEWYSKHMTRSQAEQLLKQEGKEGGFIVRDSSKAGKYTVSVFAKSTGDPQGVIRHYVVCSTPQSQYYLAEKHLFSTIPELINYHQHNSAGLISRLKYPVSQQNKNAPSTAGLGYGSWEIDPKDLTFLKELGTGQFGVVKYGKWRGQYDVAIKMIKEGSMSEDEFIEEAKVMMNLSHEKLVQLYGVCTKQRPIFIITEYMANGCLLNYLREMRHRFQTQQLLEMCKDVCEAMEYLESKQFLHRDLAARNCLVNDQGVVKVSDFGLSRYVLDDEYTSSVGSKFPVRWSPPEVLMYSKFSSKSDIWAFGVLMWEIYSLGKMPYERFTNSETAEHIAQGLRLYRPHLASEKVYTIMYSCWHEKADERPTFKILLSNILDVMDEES

Structure (SMILES)	Activity [1] [%]	Activity [2] [%]	Activity [3] [%]	Activity [4] [%]	Activity [5] [%]	Activity [6] [%]	Activity [7] [%]	Activity [8] [%]	Activity [9] [%]
COc1ccc(-c2nc3cc(-c4csc(C(=O)NCCC(C)C)c4)cnc3[nH]2)cc1	89	5	76	33	90	112	93	90	78
COc1ccc(-c2nc3cc(-c4csc(C(=O)NCC(C)(C)C)c4)cnc3[nH]2)cc1	97	13	74	67	103	102	100	85	82
COc1ccc(-c2nc3cc(-c4csc(C(=O)NCC(C)C)c4)cnc3[nH]2)cc1	102	8	72	34	99	110	112	86	102
